Data taken from patent US10118922B2 (Janssen Pharmaceutica NV, priority 2013, dated 2018).

What was measured:
[1] = system: C57B16 mice on a high fat diet; assay: GPR120 DIO mice OGTT screening; assay type: in vivo, mouse; settings: dosed 30 min prior to glucose PO
Experimental: 18-22 week old, C57B16 mice on a high fat diet (60% HFD) for 12-16 weeks (ave. body weight ˜37-41 g) were fasted for 6 hr, with removal of food occurring at 7 am on the morning of the study. The animals were sorted into treatment groups the day before the study by body weight. Animals outside the bounds of ˜30-50 g were left out of the study. The animals had been handled and shammed a total of 5-8 days (1-3 days immediately prior to the study). Glucose (in 1 mL syringes) was drawn up the morning of the study. Test compounds were kept spinning and were only drawn into 1 ml syringes prior to study commencement. Animals were bled via tail snip to determine basal glucose levels prior to dosing of treatments. An Ascensia BREEZE Blood Glucose Monitoring System by Bayer was used for determining glucose levels.
Animals were moved into the testing room at ˜9-11 am, to yield them time to acclimate. The bleeds and dosing started at approximately 1 pm in 30-second intervals per animal. All groups were dosed 30 minutes prior to glucose administration at a dose volume of 10 ml/kg (the dose volume was calculated separately for each individual animal). Test compounds were administered at one or more of the following dosages: 0.1 mg/kg, 0.3 mg/kg, 1 mg/kg, 3 mg/kg and 10 mg/kg.
Thirty minutes after the first dose (with test compound) animals were bled again for a second baseline, or T=0, and immediately dosed with glucose (20% solution; TEKNOVA, 250 ml sterile bottle w/ catalogue number G0525) via a PO injection. The exact dose volume for glucose was also calculated separately for each individual animal.
Blood glucose was measured at 15, 30, 45, 60, and 90 minutes post-glucose administration via the snipped tail. If an animal reached a value of “HI”, the upper limit of the glucometer (600 mg/dl) was substituted as the blood glucose value and the study was analyzed as normal with no exclusions. If 50% or more of any treatment group reaches a “HI” value at least once, the study was considered invalid and repeated. Glucose values were typed into an EXCEL spreadsheet where they were used to calculate glucose AUC and delta AUC post-compound and post-glucose. The glucose excursion curves and the different versions of the AUC's were graphed in GraphPad Prism 5.
Note: All statistics completed in this study were completed using the statistical software package GraphPad Prism 5. Standard procedures for analyzing data sets from screening GPR120 compounds in DIO mouse OGTT's were as listed here below. In addition to the statistics that were run using GraphPad Prism 5, Microsoft Excel was used to calculate the percent changes in AUC from vehicle groups as detailed below.
Change from −30 to 0 BSLN Glucose, Raw Glucose AUC −30 to 90 min, Delta Glucose AUC −30 to 90 min, Raw Glucose AUC 0 to 90 min, Delta Glucose AUC 0 to 90 min were analyzed using Column Statistics Analysis, with mean values used to calculate % change from the vehicle mean group, as well as mean, SEM and/or % change from vehicle, where appropriate; and using One-Way ANOVA w/ a Tukey Post-Test (Comparing All Pairs of Columns) with each treatment group examined to see if it was statistically significant compared to vehicle (*=P<0.05, **=P<0.01, ***=P<0.001).

C57b16 mouse = C57b16 mouse OGTT; assay type: in vivo; settings: dosed 30 min prior to glucose PO 3 g/kg
Experimental: (§1) Male, C57bl/6J Mice were ordered in at 8 weeks of age from Jackson Labs. Individual mice weighed anywhere in the range of 25-30 grams on study day. The mice were fasted, with removal of food occurring at 7 am on the morning of the study. Animals were moved into the room at 10:00 am, to give them time to acclimate. Glucose (insulin syringes) was drawn up either the night before or the morning of the study. Glucose was dosed (IP) at 1.5 g/kg at 7.5 ml/kg (20% glucose straight TEKNOVA, 250 ml sterile bottle w/ catalogue number G0525). Test compounds were kept spinning and were only drawn into the syringes prior to study commencement. Animals were bled via tail snip to determine basal glucose levels prior to dosing of treatments. An Ascensia BREEZE Blood Glucose Monitoring System by Bayer (using unique 10-test disks) was used for determining glucose levels. The bleeds started at approximately 12:45 pm and dosing started, at 1-minute intervals, immediately after. All groups were dosed 30 minutes prior to glucose administration at a dose volume of 10 ml/kg (the dose volume was calculated separately for each individual animal). Thirty minutes after the first dose animals were bled again for a second baseline, or T=0, and immediately dosed with glucose via an i.p. injection. The exact dose volume for glucose was also calculated separately for each individual animal. Glucose measurements were taken at −30 min prior to compound dose, at t=0 (immediately prior to glucose dose), and at 15, 30, 45, 60, 90 min post glucose dose.
(§2) Glucose values were entered into an Excel sheet and graphed in GraphPad Prism. The following were calculated from Prism: Change from −30 to 0 BSLN Glucose, Raw Glucose AUC −30 to 90 min, Delta Glucose AUC −30 to 90 min, Raw Glucose AUC 0 to 90 min, Delta Glucose AUC 0 to 90 min.
The assay design is the same as that described above for the C57b16 mouse IPGTT. The difference is that glucose was dosed PO at 3 g/kg, 7.5 ml/kg of 40% glucose.

C57bl/6J Mice = assay: GPR120 C57bl6 mouse IPGTT; assay type: in vivo; settings: 3 mg/kg, dosed 30 min prior to glucose IP 1.5 g/kg
Experimental: as §1, §2

Cc1ccc(-c2nsc(C(F)(F)F)c2COc2c(F)cc(CCC(=O)O)cc2F)c(F)c1 [Cpd 65, 3-(3,5-difluoro-4-[[3-(2-fluoro-4-methylphenyl)-5-(trifluoromethyl)-1,2-thiazol-4-yl]methoxy]phenyl)propanoic acid]
DIO Lowering Glucose AUC (−30 to 90) @ 10 mg/kg [1]: −0.61

O=C(O)CCc1cc(F)c(OCc2c(-c3ccc(Cl)c(F)c3)nsc2C(F)(F)F)c(F)c1 [Cpd 67, 3-(4-((3-(4-chloro-3-fluorophenyl)-5-(trifluoromethyl)isothiazol-4-yl)methoxy)-3,5-difluorophenyl)propanoic acid]
DIO Lowering Glucose AUC (−30 to 90) @ 10 mg/kg [1]: −0.78

O=C(O)CCc1cc(F)c(OCc2c(C3CCCC3)nsc2C(F)(F)F)c(F)c1 [Cpd 71, 3-(4-[[3-cyclopentyl-5-(trifluoromethyl)-1,2-thiazol-4-yl]methoxy]-3,5-difluorophenyl)propanoic acid]
C57 OGTT 3 mg/kg (C57b16 mouse): −37 | DIO Lowering Glucose AUC (−30 to 90) @ 10 mg/kg [1]: −0.52 | C57 IPGTT 3 mg/kg (C57bl/6J Mice): −14

CCc1ccc(-c2nsc(C(F)(F)F)c2COc2ccc(CCC(=O)O)c(F)c2F)cc1 [Cpd 73, 3-(4-((3-(4-ethylphenyl)-5-(trifluoromethyl)isothiazol-4-yl)methoxy)-2,3-difluorophenyl)propanoic acid]
DIO Lowering Glucose AUC (−30 to 90) @ 10 mg/kg [1]: −0.51

O=C(O)CCc1cc(F)c(OCc2c(-c3ccc(Cl)cc3F)nsc2C(F)(F)F)c(F)c1 [Cpd 74, 3-(4-((3-(4-chloro-2-fluorophenyl)-5-(trifluoromethyl)isothiazol-4-yl)methoxy)-3,5-difluorophenyl)propanoic acid]
DIO Lowering Glucose AUC (−30 to 90) @ 10 mg/kg [1]: −0.71

Cc1ccc(-c2nsc(C(F)(F)F)c2COc2c(F)cc(CC(C)C(=O)O)cc2F)c(F)c1 (centres unmarked) [Cpd 76, 3-(3,5-difluoro-4-[[3-(2-fluoro-4-methylphenyl)-5-(trifluoromethyl)-1,2-thiazol-4-yl]methoxy]phenyl)-2-methylpropanoic acid]
DIO Lowering Glucose AUC (−30 to 90) @ 10 mg/kg [1]: −0.8
